US10828316B2, “Method of treating bacterial infections” (priority 2016, dated 2020)
≈ marks a conversion by molar mass, not a printed value.

Experiments:
[1] = tested on: S. sonnei APV00908; assay: MIC; format: cell-based; conditions: Shigella sonnei; S. sonnei APV00908; read-out: Antibiogram MIC
[2] = tested on: S. flexneri APV00907; assay: MIC; format: cell-based; conditions: Shigella flexneri; S. flexneri APV00907; read-out: Antibiogram MIC
[3] = tested on: K. pneumoniae EN0262; conditions: commercial antibiotics, data provided by IMBIM, BMC, Uppsala University; cited from earlier work
[4] = tested on: S. flexneri APV00906; assay: MIC; format: cell-based; conditions: Shigella flexneri; S. flexneri APV00906; read-out: Antibiogram MIC
[5] = tested on: E. coli; conditions: Ciprofloxacin 14 mg/kg; single mice
[6] = tested on: S. aureus strain no 13; assay: MIC; conditions: S. aureus strain 13, trimethoprim 2 μg/ml

Row | Compound | MIC [1] | MIC [2] | MIC [3] | MIC [4] | score at sampling [5] | MIC BrdUrd ([6]; uridine 10 μg/ml) | MIC BrdUrd ([6]; uridine 100 μg/ml)
1 | CN(C)c1cc(NC(=O)CNC(C)(C)C)c(O)c2c1C[C@H]1C[C@H]3[C@H](N(C)C)C(O)=C(C(N)=O)C(=O)[C@@]3(O)C(O)=C1C2=O [tigecycline] | ≤ 0.5 mg/L | ≤ 0.5 mg/L | 2 mg/L (≈ 3.41 µM) | ≤ 0.5 mg/L |  |  | 
2 | O=C(O)c1cn(C2CC2)c2cc(N3CCNCC3)c(F)cc2c1=O [ciprofloxacin] | ≤ 0.5 mg/L | ≤ 0.5 mg/L | >2 mg/L | ≤ 0.25 mg/L | 0 |  | 
3 | O=c1[nH]c(=O)n([C@H]2C[C@H](O)[C@@H](CO)O2)cc1Br [BrdUrd] |  |  |  |  |  | ≤2 mg/L | ≤2 mg/L
4 | CCN1CCN(C(=O)N[C@@H](C(=O)N[C@@H]2C(=O)N3[C@@H]2SC(C)(C)[C@@H]3C(=O)O)c2ccccc2)C(=O)C1=O [piperacillin] |  |  | >256 mg/L |  |  |  | 
5 | C[C@@H](O)[C@H]1C(=O)N2C(C(=O)O)=C(SCCN=CN)C[C@H]12 [imipenem] | ≤ 0.25 mg/L | ≤ 0.25 mg/L |  | ≤ 0.25 mg/L |  |  | 
6 | CC(C)(O/N=C(\C(=O)N[C@@H]1C(=O)N2C(C(=O)[O-])=C(C[n+]3ccccc3)CS[C@H]12)c1csc(N)n1)C(=O)O [ceftazidime] | ≤ 1 mg/L | ≤ 1 mg/L | >32 mg/L | 16 mg/L (≈ 29.3 µM) |  |  | 
7 | O=C1CN(/N=C/c2ccc([N+](=O)[O-])o2)C(=O)N1 [Nitrofurantoin] | ≤ 16 mg/L | ≤ 16 mg/L |  | ≤ 16 mg/L |  |  | 
8 | CC1(C)S[C@@H]2[C@H](NC(=O)[C@H](N)c3ccccc3)C(=O)N2[C@H]1C(=O)O [ampicillin] |  |  | >128 mg/L |  |  |  | 
9 | C[C@@H](O)[C@H]1C(=O)N2C(C(=O)O)=C(S[C@@H]3CN[C@H](C(=O)Nc4cccc(C(=O)O)c4)C3)[C@H](C)[C@H]12 [Ertapenem] | ≤ 0.5 mg/L | ≤ 0.5 mg/L |  | ≤ 0.5 mg/L |  |  | 
10 | perfloxacin |  |  | >16 mg/L |  |  |  | 
